Results: patent US12071434B2, “Heterocyclic compound” (Takeda Pharmaceutical Company Limited, priority 2018, dated 2024)

Biological target: T1, human orexin type 2 receptor (Homo sapiens, UniProt O43614)
T1 construct: expressed in transfected cells
T1 sequence (O43614 1-444): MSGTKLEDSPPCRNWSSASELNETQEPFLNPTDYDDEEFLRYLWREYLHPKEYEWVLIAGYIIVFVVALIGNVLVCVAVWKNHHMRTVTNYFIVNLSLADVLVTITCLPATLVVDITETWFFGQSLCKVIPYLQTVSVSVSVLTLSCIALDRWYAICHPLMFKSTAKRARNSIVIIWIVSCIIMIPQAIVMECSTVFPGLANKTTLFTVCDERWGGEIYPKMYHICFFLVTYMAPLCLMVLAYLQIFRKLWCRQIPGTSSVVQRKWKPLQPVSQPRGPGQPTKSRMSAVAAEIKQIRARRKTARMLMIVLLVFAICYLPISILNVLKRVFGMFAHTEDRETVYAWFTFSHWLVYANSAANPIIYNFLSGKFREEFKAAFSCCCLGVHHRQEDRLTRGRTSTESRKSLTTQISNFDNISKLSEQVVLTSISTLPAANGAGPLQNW
Assay: Measurement of orexin type 2 receptor agonist activity (calcium fluorescence, Fluo-4 AM, FDSS) in CHO cells forcibly expressing human OX2 receptor
Type: cell-based
Details: test compound 3 μM, DMSO = 0%, orexin A (human) 10 nM = 100%
Excerpt: To obtain a cell clone stably expressing human orexin type 2 receptor, human orexin type 2 receptor cDNA was inserted into pcDNA3.1(+) plasmid vector (Invitrogen), and a plasmid DNA for expression of human orexin type 2 receptor (pcDNA3.1(+)/hOX2R) was cloned. The plasmid DNA was introduced into CHO-dhfr cell by an electroporation method, and human orexin type 2 receptor expressing clone cells were obtained by limiting dilution method by using G418 drug resistance as a selection marker.
CHO cells forcibly expressing human OX2 receptor were seeded in each well of 384 well black transparent bottom plate (BD Falcon) at 7,500 cells/well, and cultured for one day in a 5% CO2 incubator at 37° C. After removal of the medium in the cell plate, assay buffer A containing a calcium indicator (HBSS (Thermo Fisher Scientific), 20 mM HEPES (Thermo Fisher Scientific), 0.1% BSA (Sigma-Aldrich), 2.5 μg/mL Fluo-4 AM (DOJINDO Chemical), 0.08% Pluronic F127 (DOJINDO Chemical), 1.25 mM probenecid (DOJINDO Chemical)) was added at 30 μL/well. The plate was stood for 30 min in a 5% CO2 incubator at 37° C., and further stood at room temperature for 30 min. A test compound prepared by diluting with assay buffer B (HBSS, 20 mM HEPES, 0.1% BSA) was added at 10 μL/well, and the fluorescence value was measured by FDSSpCELL (Hamamatsu Photonics K.K.) every one sec for 1 min, and thereafter every two sec for 1 min 40 sec. The activity (%) of the test compound was calculated assuming that variation in the fluorescence value when DMSO was added instead of the test compound was 0%, and variation in the fluorescence value when orexin A (human) (PEPTIDE INSTITUTE, INC.) was added at the final concentration of 10 nM was 100%.

Row | SMILES | 0X2R agonist activity (3 μM, %) [%]
1 | CC(C)n1cnc2c(c1=O)[C@@H](Cc1csc(-c3cccc(F)c3F)n1)[C@@H](NS(C)(=O)=O)CC2 (relative stereo) [Example 154, rel-N-[(5R,6S)-5-{[2-(2,3-difluorophenyl)-1,3-thiazol-4-yl]methyl}-4-oxo-3-(propan-2-yl)-3,4,5,6,7,8-hexahydroquinazolin-6-yl]methanesulfonamide] | 100
2 | CC(C)n1cnc2c(c1=O)[C@@H](Cc1cccc(-c3cccc(F)c3)c1)[C@@H](NS(=O)(=O)C1CC1)CC2 [Example 188, N-[(5R,6S)-5-[(3′-fluoro[1,1′-biphenyl]-3-yl)methyl]-4-oxo-3-(propan-2-yl)-3,4,5,6,7,8-hexahydroquinazolin-6-yl]cyclopropanesulfonamide] | 107
3 | COC1(C(=O)N[C@H]2CCc3ccc(C)c(=O)n3[C@H]2Cc2cccc(-c3cccc(F)c3)c2F)CC1 (relative stereo) [Example 56, rel-N-{(3S,4S)-4-[(2,3′-difluoro[1,1′-biphenyl]-3-yl)methyl]-7-methyl-6-oxo-1,3,4,6-tetrahydro-2H-quinolizin-3-yl}-1-methoxycyclopropane-1-carboxamide] | 93
4 | [2H]C([2H])([2H])C([2H])(n1cnc2c(c1=O)C(Cc1cccc(-c3ccccc3)c1F)C(NS(=O)(=O)C1(F)CC1)CC2)C([2H])([2H])[2H] [Example 213, rel-1-fluoro-N-{(5S,6R)-5-[(2-fluoro[1,1′-biphenyl]-3-yl)methyl]-4-oxo-3-[(~2~H_7_)propan-2-yl]-3,4,5,6,7,8-hexahydroquinazolin-6-yl}cyclopropane-1-sulfonamide] | 105
5 | Cc1n[nH]c(=O)c2c1CC[C@H](NS(C)(=O)=O)[C@@H]2Cc1cccc(-c2ccccc2)c1 (racemic) [Example 138, rac-N-{(5R,6S)-5-[([1,1′-biphenyl]-3-yl)methyl]-1-methyl-4-oxo-3,4,5,6,7,8-hexahydrophthalazin-6-yl}methanesulfonamide] | 44
6 | COc1ccc2n(c1=O)[C@@H](Cc1cccc(-c3ccccc3)c1)[C@@H](NS(C)(=O)=O)CC2 (racemic) [Example 34, rac-N-{(3S,4S)-4-[([1,1′-biphenyl]-3-yl)methyl]-7-methoxy-6-oxo-1,3,4,6-tetrahydro-2H-quinolizin-3-yl}methanesulfonamide] | 105
7 | CC(C)n1cnc2c(c1=O)C(Cc1cccc(-c3ccccc3)c1)C(NS(C)(=O)=O)C(F)C2=O (racemic) [Example 179, N-[(5RS,6RS)-5-[([1,1′-biphenyl]-3-yl)methyl]-7-fluoro-4,8-dioxo-3-(propan-2-yl)-3,4,5,6,7,8-hexahydroquinazolin-6-yl]methanesulfonamide] | 100
8 | CCn1ccc2c(c1=O)[C@@H](Cc1cccc(-c3ccccc3)c1F)[C@@H](NS(C)(=O)=O)CC2 (racemic) [Example 87, rac-N-{(7S,8R)-2-ethyl-8-[(2-fluoro[1,1′-biphenyl]-3-yl)methyl]-1-oxo-1,2,5,6,7,8-hexahydroisoquinolin-7-yl}methanesulfonamide] | 97
9 | CCS(=O)(=O)N[C@H]1CCc2ncn(C(C)C)c(=O)c2[C@H]1Cc1cccc(-c2cccc(F)c2F)c1 (racemic) [Example 85, rac-N-[(5R,6S)-5-[(2′,3′-difluoro[1,1′-biphenyl]-3-yl)methyl]-4-oxo-3-(propan-2-yl)-3,4,5,6,7,8-hexahydroquinazolin-6-yl]ethanesulfonamide] | 98
10 | CC(C)n1cnc2c(c1=O)[C@@H](Cc1cccc(-c3ccccc3)c1F)[C@@H](NS(C)(=O)=O)[C@H](F)[C@H]2F (racemic) [Example 198, rac-N-[(5R,6R,7S,8S)-7,8-difluoro-5-[(2-fluoro[1,1′-biphenyl]-3-yl)methyl]-4-oxo-3-(propan-2-yl)-3,4,5,6,7,8-hexahydroquinazolin-6-yl]methanesulfonamide] | 85
11 | CCc1ccc2n(c1=O)[C@@H](Cc1cccc(C3CC3)c1)[C@@H](NS(C)(=O)=O)CC2 (racemic) [Example 136, rac-N-{(3S,4S)-4-[(3-cyclopropylphenyl)methyl]-7-ethyl-6-oxo-1,3,4,6-tetrahydro-2H-quinolizin-3-yl}methanesulfonamide] | 89
12 | Cc1cc(F)c2n(c1=O)[C@@H](Cc1cccc(-c3ccccc3)c1)[C@@H](NS(C)(=O)=O)CC2 (racemic) [Example 21, rac-N-{(3S,4S)-4-[([1,1′-biphenyl]-3-yl)methyl]-9-fluoro-7-methyl-6-oxo-1,3,4,6-tetrahydro-2H-quinolizin-3-yl}methanesulfonamide] | 101
13 | CS(=O)(=O)N[C@H]1CCc2c(Cl)nc(Cl)c(=O)n2[C@H]1Cc1cccc(-c2ccccc2)c1 (racemic) [Example 61, rac-N-{(6S,7S)-6-[([1,1′-biphenyl]-3-yl)methyl]-1,3-dichloro-4-oxo-6,7,8,9-tetrahydro-4H-pyrido[1,2-a]pyrazin-7-yl}methanesulfonamide] | 51
14 | CCn1ccc2c(c1=O)[C@@H](Cc1cccc(-c3cccc(C)c3F)c1)[C@@H](NS(C)(=O)=O)CC2 (racemic) [Example 120, rac-N-{(7S,8R)-2-ethyl-8-[(2′-fluoro-3′-methyl[1,1′-biphenyl]-3-yl)methyl]-1-oxo-1,2,5,6,7,8-hexahydroisoquinolin-7-yl}methanesulfonamide] | 98
15 | Cc1cc(C)c(=O)n2c1CC[C@H](NS(C)(=O)=O)[C@@H]2Cc1cccc(-c2ccccc2)c1 (racemic) [Example 13, rac-N-{(3S,4S)-4-[([1,1′-biphenyl]-3-yl)methyl]-7,9-dimethyl-6-oxo-1,3,4,6-tetrahydro-2H-quinolizin-3-yl}methanesulfonamide] | 112
16 | Cc1cc2n(c(=O)c1)[C@@H](Cc1cccc(-c3ccccc3)c1)[C@@H](NS(C)(=O)=O)CC2 (racemic) [Example 14, rac-N-{(3S,4S)-4-[([1,1′-biphenyl]-3-yl)methyl]-8-methyl-6-oxo-1,3,4,6-tetrahydro-2H-quinolizin-3-yl}methanesulfonamide] | 107
17 | CCS(=O)(=O)N[C@H]1CCc2ncn(C(C)C)c(=O)c2[C@H]1Cc1cccc(-c2cc(C)ccn2)c1 (racemic) [Example 98, rac-N-[(5R,6S)-5-{[3-(4-methylpyridin-2-yl)phenyl]methyl}-4-oxo-3-(propan-2-yl)-3,4,5,6,7,8-hexahydroquinazolin-6-yl]ethanesulfonamide] | 107
18 | CC(C)c1nn(C)c2c(c1=O)[C@@H](Cc1cccc(-c3ccccc3)c1)[C@@H](NS(C)(=O)=O)CC2 (racemic) [Example 158, rac-N-[(5R,6S)-5-[([1,1′-biphenyl]-3-yl)methyl]-1-methyl-4-oxo-3-(propan-2-yl)-1,4,5,6,7,8-hexahydrocinnolin-6-yl]methanesulfonamide] | 101
19 | CC(C)n1cnc2c(c1=O)[C@@H](Cc1cccc(-c3cccc(C(F)F)c3F)c1F)[C@@H](NS(C)(=O)=O)CC2 (relative stereo) [Example 152, rel-N-[(5R,6S)-5-{[3′-(difluoromethyl)-2,2′-difluoro[1,1′-biphenyl]-3-yl]methyl}-4-oxo-3-(propan-2-yl)-3,4,5,6,7,8-hexahydroquinazolin-6-yl]methanesulfonamide] | 94
20 | CC(C)n1ccc2c(c1=O)[C@@H](Cc1cccc(-c3ccccc3)n1)[C@@H](NS(C)(=O)=O)CC2 (racemic) [Example 148, rac-N-[(7S,8R)-1-oxo-8-[(6-phenylpyridin-2-yl)methyl]-2-(propan-2-yl)-1,2,5,6,7,8-hexahydroisoquinolin-7-yl]methanesulfonamide] | 104
21 | CC(C)N1CNC2=C(C1=O)[C@@H](Cc1csc(-c3ccccc3F)n1)[C@@H](NS(=O)(=O)C1(F)CC1)CC2 (relative stereo) [Example 157, rac-1-fluoro-N-[(5R,6S)-5-{[2-(2-fluorophenyl)-1,3-thiazol-4-yl]methyl}-4-oxo-3-(propan-2-yl)-1,2,3,4,5,6,7,8-octahydroquinazolin-6-yl]cyclopropane-1-sulfonamide] | 99
